Source: patent US9802899B2, “Heterocyclic compounds as pesticides” (BAYER CROPSCIENCE AG, priority 2012, dated 2017)
Read-outs that look alike come from different tables or passages of the source.

Assays:
[1] = Determination of the log P values by HPLC (formic acid method); type: physicochemical; conditions: reversed-phase column (C 18), acidic range (pH 3.4), 55° C.
Protocol: 1) Description of Method for Determination of the Log P Values (Formic Acid Method)
Eluents for determination in the acidic range (pH 3.4):
Eluent A: acetonitrile+1 ml of formic acid/liter. Eluent B: water+0.9 ml of formic acid/liter.
The lambda max values were determined in the maxima of the chromatographic signals using the UV spectra from 200 nm to 400 nm.

[2] = test system: spider mites; assay: spider mite test, efficacy in % after 6 days; type: in vivo; conditions: 100% = all spider mites killed, 0% = none killed
Protocol: After 6 days, the efficacy in % is determined. 100% means that all of the spider mites have been killed; 0% means that none of the spider mites have been killed.

[3] = test system: Cooperia curticei; assay: Cooperia curticei test (COOPCU); type: in vivo; conditions: for pest or weed control at 100 ppm / pest or weed control at 20 ppm: Cooperia curticei, 120 h, read-out: efficacy (kill)
Protocol: Cooperia curticei Test (COOPCU)
(§1) Solvent: dimethyl sulphoxide
To produce a suitable preparation of active compound, 10 mg of active compound are mixed with 0.5 ml of dimethyl sulphoxide, and the concentrate is diluted with Ringer solution to the desired concentration.
Vessels containing the active compound preparation of the desired concentration are populated with about 40 nematode larvae (Cooperia curticei).
After 5 days, the kill in % is determined 100% means that all of the larvae have been killed; 0% means that none of the larvae have been killed.

[4] = test system: Lucilia cuprina larvae; assay: Lucilia cuprina test (LUCICU); type: in vivo; conditions: application rate 100 ppm; larvae on treated horse meat; after 2 days
Protocol: Lucilia cuprina Test (LUCICU)
as §1
To produce a suitable preparation of active compound, 10 mg of active compound are mixed with 0.5 ml of dimethyl sulphoxide, and the concentrate is diluted with water to the desired concentration.
Vessels containing horse meat treated with the active compound preparation of the desired concentration are populated with about 20 Lucilia cuprina larvae.
After 2 days, the kill in % is determined 100% means that all of the larvae have been killed; 0% means that none of the larvae have been killed.

[5] = test system: Meloidogyne incognita; assay: Meloidogyne incognita test (MELGIN); type: in vivo; conditions: Meloidogyne incognita, 336 h; application rate 20 ppm; lettuce in sand; after 14 days; read-out: nematicidal effect (formation of galls)
Protocol: Meloidogyne incognita Test (MELGIN)
Solvent: 125.0 parts by weight of acetone
To prepare a suitable active compound preparation, 1 part by weight of active compound is mixed with the stated amount of solvent and the concentrate is diluted with water to the desired concentration.
Vessels are filled with sand, active compound solution, an egg/larvae suspension of the root-knot nematode (Meloidogyne incognita) and lettuce seeds. The lettuce seeds germinate and the plants develop. On the roots, galls are formed.
After 14 days, the nematicidal effect in % is determined by the formation of galls. 100% means that no galls have been found; 0% means that the number of galls on the treated plants corresponds to the untreated control.

[6] = test system: Phaedon cochleariae; assay: Phaedon cochleariae spray test (PHAECO); type: in vivo; conditions: foliar, 168 h, application rate 500 g/ha, larvae on Chinese cabbage leaf discs, after 7 days, read-out: efficacy
Protocol: Phaedon cochleariae Spray Test (PHAECO)
Solvents: 78.0 parts by weight of acetone • • 1.5 parts by weight of dimethylformamide
(§2) Emulsifier: 0.5 part by weight of alkylaryl polyglycol ether
(§3) To produce a suitable preparation of active compound, 1 part by weight of active compound is mixed with the stated amounts of solvents and emulsifier, and the concentrate is diluted with emulsifier-containing water to the desired concentration.
After 7 days, the efficacy in % is determined. 100% means that all of the beetle larvae have been killed; 0% means that none of the beetle larvae have been killed.

[7] = test system: Myzus persicae; assay: Myzus persicae spray test (MYZUPE); type: in vivo; conditions: Chinese cabbage leaf discs, after 6 days
Protocol: Myzus persicae Spray Test (MYZUPE)
Solvents: 78 parts by weight of acetone • • 1.5 parts by weight of dimethylformamide
as §2, §3
Discs of Chinese cabbage leaves (Brassica pekinensis) infested by all stages of the green peach aphid (Myzus persicae) are sprayed with an active compound preparation of the desired concentration.
After 6 days, the efficacy in % is determined 100% here means that all of the aphids have been killed; 0% means that no aphids have been killed.

[8] = test system: Boophilus microplus; assay: Boophilus microplus test (DIP); type: in vivo; conditions: application rate 100 ppm, after 7 days by laying of fertile eggs, 100% = no fertile eggs
Protocol: Boophilus microplus Test (DIP)
Test animals: adult engorged Boophilus microplus females of the SP-resistant Parkhurst strain
as §1
10 mg of active compound are dissolved in 0.5 ml of dimethyl sulphoxide. For the purpose of preparing a suitable formulation, the active compound solution is diluted with water to the concentration desired in each case.
This active compound preparation is pipetted into tubes. 8-10 ticks are transferred into a further tube with holes. The tube is immersed into the active compound formulation, and all ticks are completely wetted. After the liquid has run out, the ticks are transferred onto filter discs in plastic dishes and stored in a climate-controlled room.
The activity is assessed after 7 days by laying of fertile eggs. Eggs whose fertility is not visible from the outside are stored in a climate-controlled cabinet until the larvae hatch. An efficacy of 100% means that none of the ticks has laid any fertile eggs.

[9] = application rate 100 ppm, nematode larvae, after 5 days
[10] = reversed-phase HPLC column (C 18)

With O=C(Nc1ccn(-c2ccccc2F)n1)c1ccccc1Br [Compound I-1-10] the “log P” value [1] was 2.78 and the efficacy in % ([2]; application rate of 500 g/ha) was 80%.
In the case of O=C(Nc1ccn(-c2ccccc2Cl)n1)c1ccccc1OC(F)(F)F [Compound I-1-18], the “log P” value [1] is reported as 3.28 and the efficacy in % ([2]; application rate of 500 g/ha) is reported as 80%.
In the case of O=C(Nc1ccn(-c2ccccc2Cl)n1)c1ccccc1Cl [Compound I-1-20, 2-Chloro-N-[1-(2-chlorophenyl)-1H-pyrazol-3-yl]benzamide], the pest or weed control at 100 ppm [3, 9] is reported as 90%, the “efficacy (kill)” value [4] is reported as 90% and the pest or weed control at 20 ppm [5] is reported as 90%. The chromatographic logP [1, 10] was 2.8 and the pest or weed control at 500 g/ha [6] was 100%.
With N#CCN(C(=O)c1ccccc1Cl)c1ccn(-c2ccccc2Cl)n1 [Compound I-1-25] the efficacy ([7]; application rate 500 g/ha) was 80% and the “log P” value [1] was 3.04.
With O=C(Nc1ccn(-c2ccccc2Cl)n1)c1c(F)cccc1Cl [Compound I-1-37] the “efficacy (kill)” value [4] was 90% and the “log P” value [1] was 2.84.
With O=C(Nc1ccn(-c2ccccc2Cl)n1)c1ncccc1C(F)(F)F [Compound I-1-39] the “log P” value [1] was 2.99, the efficacy in % ([2]; application rate of 500 g/ha) was 80% and the efficacy [8] was 90%.
With O=C(Nc1ccn(-c2ccccc2Cl)n1)c1cccnc1Cl [Compound I-1-43] the “log P” value [1] was 2.19 and the efficacy in % ([2]; application rate of 100 g/ha) was 90%.
With O=C(Nc1ccn(-c2ccccc2Br)n1)c1ccccc1Cl [Compound I-1-51] the “efficacy (kill)” value [4] was 90% and the “log P” value [1] was 2.83.
For O=C(Nc1ccn(-c2cccc(F)c2F)n1)c1ccccc1Br [Compound I-1-63, 2-Bromo-N-[1-(2,3-difluorophenyl)-1H-pyrazol-3-yl]benzamide], the pest or weed control at 20 ppm ([3]; application rate 20 ppm, nematode larvae, after 5 days) was 90%, the “efficacy (kill)” value [4] was 80% and the efficacy ([7]; application rate 500 g/ha) was 90%. For the same compound, the chromatographic logP [1, 10] was 2.97 and the pest or weed control at 500 g/ha [6] was 100%.
With Cc1ncccc1C(=O)Nc1ccn(-c2cc(F)ccc2F)n1 [Compound I-1-69] the “efficacy (kill)” value [3, 9] was 80%, the “efficacy (kill)” value [4] was 90% and the “log P” value [1] was 1.53.
With CS(=O)(=O)c1ccccc1C(=O)Nc1ccn(-c2c(F)cccc2F)n1 [Compound I-1-80] the efficacy ([7]; application rate 500 g/ha) was 90% and the “log P” value [1] was 1.95.
With O=C(Nc1ccn(-c2c(F)cccc2F)n1)c1ccccc1Br [Compound I-1-82] the “efficacy (kill)” value [4] was 95%, the “log P” value [1] was 2.59 and the efficacy [8] was 80%.
For O=C(Nc1ccn(-c2c(F)cccc2F)n1)c1ccccc1[N+](=O)[O-] [Compound I-1-86], the efficacy ([7]; application rate 20 g/ha) was 90% and the “log P” value [1] was 2.20.
For CCOc1cccc(F)c1-n1ccc(NC(=O)c2ccccc2Cl)n1 [Compound I-1-117, 2-Chloro-N-[1-(2-ethoxy-6-fluorophenyl)-1H-pyrazol-3-yl]benzamide], the pest or weed control at 20 ppm [5] was 100%, the chromatographic logP [1, 10] was 2.84 and the pest or weed control at 500 g/ha [6] was 100%.
With O=C(Nc1ccn(-c2ncccc2F)n1)c1cccnc1C(F)(F)F [Compound I-1-133] the efficacy ([7]; application rate 500 g/ha) was 90% and the “log P” value [1] was 1.83.
In the case of O=C(Nc1ccn(-c2ncc(F)cc2F)n1)c1ccccc1I [Compound I-1-145], the “efficacy (kill)” value [4] is reported as 90%, the efficacy ([7]; application rate 500 g/ha) is reported as 90% and the “log P” value [1] is reported as 2.45.
With O=C(Nc1ccn(-c2ncc(F)cc2F)n1)c1c(F)cccc1F [Compound I-1-146, N-[1-(3,5-Difluoropyridin-2-yl)-1H-pyrazol-3-yl]-2,6-difluorobenzamide] the pest or weed control at 100 ppm [3] was 100%, the pest or weed control at 20 ppm [5] was 100% and the chromatographic logP [1, 10] was 2.19.
In the case of O=C(Nc1ccn(-c2ccccc2C(F)(F)F)n1)c1ccccc1Br [Compound I-1-186], the “efficacy (kill)” value [4] is reported as 80% and the “log P” value [1] is reported as 2.96.
With Cc1cc(NC(=O)c2cccnc2Br)nn1-c1ccc(F)cc1F [Compound I-1-210] the “log P” value [1] was 2.89 and the efficacy in % ([2]; application rate of 500 g/ha) was 95%.
In the case of O=C(Nc1ccn(-c2c(F)cccc2F)n1)c1cccnc1C(F)F [Compound I-1-248], the “log P” value [1] is reported as 1.99 and the efficacy in % ([2]; application rate of 500 g/ha) is reported as 80%.
With O=C(c1ccccc1C(F)(F)F)N(CC1CC1)c1ccn(-c2c(F)cccc2F)n1 [Compound I-1-258] the “log P” value [1] was 3.68 and the efficacy in % ([2]; application rate of 500 g/ha) was 95%.
In the case of CCOCN(C(=O)c1ccccc1C(F)(F)F)c1ccn(-c2c(F)cccc2F)n1 [Compound I-1-262], the “log P” value [1] is reported as 3.40 and the efficacy in % ([2]; application rate of 500 g/ha) is reported as 95%.
In the case of CC#CCN(C(=O)c1ccccc1C(F)(F)F)c1ccn(-c2c(F)cccc2F)n1 [Compound I-1-263], the “log P” value [1] is reported as 3.40 and the efficacy in % ([2]; application rate of 500 g/ha) is reported as 95%.
For COc1ccccc1C(=O)Nc1ccn(-c2c(F)cccc2F)n1 [Compound I-1-280], the efficacy ([7]; application rate 500 g/ha) was 90% and the “log P” value [1] was 2.75.
In the case of O=C(Nc1ccn(-c2ncc(Cl)cc2Cl)n1)c1ccccc1C(F)(F)F [Compound I-1-428], the “log P” value [1] is reported as 3.05 and the efficacy in % ([2]; application rate of 500 g/ha) is reported as 95%.
Compound N#Cc1cccnc1-n1ccc(NC(=O)c2ccccc2C(F)(F)F)n1 [Compound I-1-575, N-[1-(3-Cyanopyridin-2-yl)-1H-pyrazol-3-yl]-2-(trifluoromethyl)benzamide] has a pest or weed control at 20 ppm [3] of 100%, a pest or weed control at 20 ppm [5] of 100% and a chromatographic logP [1, 10] of 2.55.
In the case of O=C(Nc1ccn(-c2ccc(F)cn2)n1)c1ccccc1C(F)(F)F [Compound I-1-596], the “log P” value [1] is reported as 2.88 and the efficacy in % ([2]; application rate of 500 g/ha) is reported as 95%.
With O=C(Nc1ccn(-c2ccc(F)cn2)n1)c1c(F)cccc1F [Compound I-1-598] the “log P” value [1] was 2.61 and the efficacy in % ([2]; application rate of 500 g/ha) was 85%.
With O=C(Nc1cnn(-c2ccccc2Cl)n1)c1ccccc1Cl [Compound I-2-2] the “efficacy (kill)” value [4] was 80% and the “log P” value [1] was 2.89.
Work on O=C(Nc1cnn(-c2c(F)cccc2F)n1)c1ccccc1C(F)(F)F [Compound I-2-35, N-[2-(2,6-Difluorophenyl)-2H-1,2,3-triazol-4-yl]-2-(trifluoromethyl)benzamide] yielded a pest or weed control at 20 ppm [3] of 100%, a pest or weed control at 20 ppm [5] of 100% and a chromatographic logP [1] of 2.8. It also gave a pest or weed control at 500 g/ha [6] of 100%.
With O=C(Nc1cnn(-c2c(F)cccc2F)n1)c1c(F)cccc1C(F)(F)F [Compound I-2-39] the efficacy ([7]; application rate 500 g/ha) was 90% and the “log P” value [1] was 2.88.
For O=C(Nc1cnn(-c2ncccc2Cl)n1)c1ccsc1I [Compound I-2-58], the efficacy ([7]; application rate 500 g/ha) was 90% and the “log P” value [1] was 2.44.
With O=C(Nc1ccn(-c2c(F)cccc2F)c1)c1ccccc1C(F)(F)F [Compound I-3-1, N-[1-(2,6-Difluorophenyl)-1H-pyrrol-3-yl]-2-(trifluoromethyl)benzamide] the pest or weed control at 20 ppm [3] was 100%, the “efficacy (kill)” value [4] was 80% and the pest or weed control at 20 ppm [5] was 90%. It also gave a chromatographic logP [1, 10] of 2.96 and a pest or weed control at 500 g/ha [6] of 100%.
